Data taken from patent publication US12016843B2, “Compositions and methods for the treatment of amyotrophic lateral sclerosis, parkinson's disease, parkinson's disease with dementia, dementia with lewy bodies, and multiple system atrophy” (priority 2019, dated 2024).

How the values were obtained:
[1] = tested on: mitochondrial respiration in brain homogenate from the infarcted area; assay: Mitochondrial respiration (respiratory control ratio) in brain homogenate after endothelin-1 induced ischemic stroke; format: in vivo, Sprague Dawley rats; settings: rats, ET-1 middle cerebral artery occlusion, 5 mg/kg sc at 24 and 4 hours prior to ischemia, measured 24 hours after onset
Experimental: Ischemic stroke was induced in Sprague Dawley rats via middle cerebral artery occlusion with the vasoconstrictive peptide endothelin-1 (ET-1; 240 pmol per injection). Compound Ia was administered to each rat at 24 and 4 hours prior to onset of ischemia via subcutaneous injection at 5 mg/kg. Mitochondrial respiration was measured in brain homogenate excised from the infarcted area 24 hours following the onset of ischemia using high resolution respirometry (OxyGraph 02K). Respiratory control ratio was calculated as complex I supported oxidative phosphorylation divided by Complex I linked leak respiration. Results are illustrated in FIG. 5B, ** p<0.01, one-way ANOVA.

[2] = tested on: SOD1 G93A high copy transgenic mice; assay: Plasma neurofilament light chain (NfL) levels in SOD1 G93A mouse model of ALS; format: in vivo; settings: for plasma NfL levels Mean Diff. (Dunnett's multiple comparisons test, Vehicle vs. 0.5 mg/kg): 0.5 mg/kg daily ip; for plasma NfL levels Mean Diff. (Dunnett's multiple comparisons test, Vehicle vs. 0.5 mg/kg) / plasma NfL levels Mean Diff. (Dunnett's multiple comparisons test, Vehicle vs. 5.0 mg/kg): 10 weeks; for plasma NfL levels Mean Diff. (Dunnett's multiple comparisons test, Vehicle vs. 5.0 mg/kg): 5.0 mg/kg daily ip
Experimental: Study Design. Three experimental groups of n=20 (10 male, 10 female) SOD1 G93A high copy transgenic mice were dosed daily via intraperitoneal administration of vehicle control; (R)-2-amino-N—((S)-1-(((S)-5-amino-1-(3-benzyl-1,2,4-oxadiazol-5-yl)pentyl)amino)-3-(4-hydroxy-2,6-dimethylphenyl)-1-oxopropan-2-yl)-5-guanidinopentanamide (as its tris-HCl salt-(Ia)) at 0.5 mg/kg; or (R)-2-amino-N—((S)-1-(((S)-5-amino-1-(3-benzyl-1,2,4-oxadiazol-5-yl)pentyl)amino)-3-(4-hydroxy-2,6-dimethylphenyl)-1-oxopropan-2-yl)-5-guanidinopentanamide (as its tris-HCl salt—(Ia)) at 5.0 mg/kg. Animals were dosed beginning at 8 weeks of age and dosing was continued until humane end of life (defined by the inability of animal to right itself from either side within 30 seconds when placed on its side). Experimental endpoints and in-life collections and observations were as follows: • 1. Bodyweight measurement. Daily recording of weight. • 2. Neurological scoring. Weekly NeuroScore, a qualitative assessment of neurological disease progression based upon a five-point grading system. Scoring is defined as follows: • Score 0: Full extension of hind legs away from the lateral midline when the mouse is suspended by its tail, and the mouse can hold this extension for 2 seconds, being suspended 3 times consecutively. • Score 1: Collapse or partial collapse of the leg extension toward the lateral midline or trembling of hind legs during the tail suspension. • Score 2: Toes curl under at least twice during walking of 12 inches, or any part of the foot is dragging along the cage bottom or table. • Score 3: Rigid paralysis or minimal joint movement, the foot is not being used for forward motion. • Score 4: The mouse cannot right itself within 30 sec from either side. • 3. Grip strength test. Weekly forelimb grip strength, performed as follows: • a. Subjects are weighed and acclimated to the testing room for at least 60 min. • b. Equipment: Bioseb grip strength meter equipped with a grid for grasping that is suited for mice. • c. Mice are lowered towards the grid by their tails to allow for visual placing and for the mouse to grip the grid with their forepaws. • d. Subjects are firmly pulled horizontally away from the grid (parallel to the bench) for 3 consecutive trials with a brief (approximately 30 sec) rest period on the bench between trials. • e. The average force in grams of the 3 forepaw and 3 all-paws trials are analyzed with and without normalization to body weight. • 4. Retro-orbital blood collection. Bi-weekly retroorbital eye bleeds to determine drug exposure levels as well as levels of neurofilament light chain, a biomarker of axonal damage shown to correlate with ALS disease progression in human patients. Briefly, mice are sedated with isoflurane (5% induction, 2% maintenance) in O2. When they reach the plane of anesthesia, mice are withdrawn from isoflurane and blood is collected with a 25 μL glass capillary tube from the retro-orbital sinus, alternating sides for successive bleeds. 200 μL of whole blood is collected in a BD K2EDTA Microtainer collection tube containing 3.5 μL of 25X HALT protease inhibitor cocktail and kept on ice for processing. Mice are allowed to recover from the anesthesia, then returned to their home cage. Results […]

[3] = Drug levels in whole brain homogenate by LC-MS/MS after subcutaneous injection; format: in vivo; settings: Sprague Dawley rats, 5 mg/kg subcutaneous, over 36 hours, compared with elamipretide
Experimental: Sprague Dawley rats were injected subcutaneously with 5 mg/kg of Compound Ia or elamipretide (n=4 per time-point). Animals were sacrificed at the indicated timepoints and transcardial perfusion was performed. Drug levels in whole brain homogenate were determined by LC-MS/MS.

[4] = tested on: corticospinal motor neurons derived from prp-TDP-43^A315T-UeGFP mouse model; assay: Neurite length in primary corticospinal motor neurons from prp-TDP-43^A315T-UeGFP mice; format: cell-based; settings: 10 nM, 100 nM and 1000 nM, vs DMSO vehicle
Experimental: Studies were performed in primary cells derived from the prp-TDP-43^A315T-UeGFP mouse model (Gautam, et al. Acta Neuropathol. 2019 January; 137(1): 47-69). Briefly, these mice express a pathogenic human TDP43 transgene which leads to severe structural alterations in the mitochondria, nucleus, and endoplasmic reticulum on the background of an eGFP reporter mouse. Both transgene (prp) and reporter (UCHL1) are driven by tissue specific promoter elements, leading to the generation of fluorescent green corticospinal motor neurons carrying the TDP43 mutation. Utilizing the endogenous fluorescence of the eGFP reporter, corticospinal motor neurons can be directly visualized in situ. Mixed cortical cultures were derived from the brains of prp-TDP-43^A315T-UeGFP mice and allowed to divide in serum free minimal medium for 3 cell divisions. Culture media +/− drug was removed and replenished daily. Doses of Compound Ia utilized in the experiment were 10 nM; 100 nM and 1000 nM. Drug was prepared in DMSO vehicle, and DMSO was used as vehicle control (<1% volume/volume). Cells were imaged using standard fluorescent microscopy techniques. Neurite length was calculated using automated imaging software (NIH Image J) on GFP expressing cells. Three independent biological replicates were performed, with a minimum of 10 motor neurons imaged per each replicate. […]

## Cc1cc(O)cc(C)c1C[C@H](NC(=O)[C@H](N)CCCNC(=N)N)C(=O)N[C@@H](CCCCN)c1nc(Cc2ccccc2)no1.Cl.Cl.Cl [Compound Ia, (R)-2-amino-N—((S)-1-(((S)-5-amino-1-(3-benzyl-1,2,4-oxadiazol-5-yl)pentyl)amino)-3-(4-hydroxy-2,6-dimethylphenyl)-1-oxopropan-2-yl)-5-guanidinopentanamide·3HCl]
[1]
  mitochondrial respiration in brain (respiratory control ratio): restored mitochondrial respiration in brain
[2]; female SOD1 G93A mice
  plasma NfL levels Mean Diff. (Dunnett's multiple comparisons test, Vehicle vs. 0.5 mg/kg): −1075
  plasma NfL levels Mean Diff. (Dunnett's multiple comparisons test, Vehicle vs. 5.0 mg/kg): 1291
[2]; male SOD1 G93A mice
  plasma NfL levels Mean Diff. (Dunnett's multiple comparisons test, Vehicle vs. 0.5 mg/kg): 897.8
  plasma NfL levels Mean Diff. (Dunnett's multiple comparisons test, Vehicle vs. 5.0 mg/kg): 3469
[2]; male SOD1 G93A mice, 5.0 mg/kg, 10 weeks of administration
  accumulation of NfL in plasma: statistically significant impact on the accumulation of NfL
[3]
  brain exposure (drug levels in whole brain homogenate): higher than that of elamipretide
[4]
  average neurite length per cell: improved neurite length at all doses assessed
